Legend:
[1] = tested on: nitrite production in BV-2 cells; assay: LPS-induced nitrite (nitric oxide) production in BV-2 cells, Griess reagent; type: cell-based, murine; settings: 100 ng/ml LPS, 18 hours
Method: Nitrite levels in the culture media were determined using Griess reagent under manufacturer's instructions (Sigma Aldrich, St. Louis, Mo.). Fresh culture media were used as blanks and the nitrite levels were determined by using a standard sodium nitrite curve.
The effect of each extract on nitric oxide production is evaluated according to the procedures illustrated as follows. Briefly, murine microglia cell line BV-2 is maintained in Dulbecco's modified Eagle's minimum essential medium (DMEM) supplemented with 10% FBS and 1% penicillin and streptomycin (Invitrogen Life Technologies, Carlsbad, Calif.) at 37° C. in a humidified atmosphere with 5% CO2 in warm air.
0.1 M cells/ml BV-2 cells are seeded in 24-well plates (0.5 ml in each well). Cells are treated with 0.05% DMSO; 0.05% DMSO and 100 ng/ml LPS; or 100 ng/ml LPS and 50 μg/ml of an LCX extract for 18 hours, respectively. The culture supernatant is collected. The nitric oxide level is measured using the Griess reagent according to standard manufacturer's instructions (Sigma Aldrich, St. Louis, Mo.), and assessed using the standard sodium nitrite curve.
The effect of senkyunolide A (Sen A) and Z-ligustilide (Z-Lig) at various concentrations on LPS-induced nitrite production is further evaluated in this Example. Briefly, 0.1 M cells/ml BV-2 cells are seeded in 24-well plates (0.5 ml in each well). Cells are treated with 0.05% DMSO; 0.05% DMSO and 100 ng/ml LPS; 50 μg/ml Sen A/Z-Lig; or 100 ng/ml LPS and Sen A/Z-Lig at a concentration of 1 μg/ml, 5 μg/ml, 10 μg/ml, 25 μg/ml, and 50 μg/ml for 18 hours, respectively. The culture supernatant is collected. The nitric oxide level is measured using the Griess reagent according to standard manufacturer's instructions (Sigma Aldrich, St. Louis, Mo.), and evaluated using the standard sodium nitrite curve.

[2] = tested on: TNF-α production in human blood macrophages; assay: LPS-induced TNF-α production in human blood macrophages (PBMac), ELISA; type: cell-based; settings: 25 or 50 μg/ml for 24 hours, then 1 ng/ml LPS for 24 hours
Method: To measure the TNF-α level in cell culture supernatants, BV-2 cells were seeded at 1×10^5 cells/ml in the volume of 0.5 ml in 24-well culture plates. They were co-treated with or without 100 ng/ml LPS in the absence or presence of indicated concentrations of bioactive compounds of LCX for 18 h. In addition, PBMac cells were seeded at 1×10^6 cells/ml in the volume of 0.5 ml in 24-well plates. After incubation, the supernatants were collected and TNF-α levels were determined by ELISA according to the manufacturer's instructions (R&D Systems). […] To study the effect of Sen A and Z-Lig at various concentrations on TNF-α production, 1×10^6 cells/ml (FIG. 6) PBMac cells are seeded in 24-well plates (0.5 ml in each well). Cells are treated with 25 μg/ml or 50 μg/ml Sen A, Z-Lig, or DMSO for 24 hours prior to the addition of 1 ng/ml LPS, and further incubated for another 24 hours. The culture supernatants are collected and the level of secreted TNF-α is measured by ELISA according to the manufacturer's instructions (R&D Systems, Minneapolis, Minn.).

NF-kB p65 = assay: Nuclear translocation of NF-kB p65 in LPS-stimulated BV-2 cells, Western blot; type: cell-based, murine; settings: 50 μg/ml pretreatment 1 h, 100 ng/ml LPS 30 min
Method: BV-2 cells (2×10^5 cells/ml) were pretreated with either 0.05% DMSO or 50 μg/ml senkyunolide A for 1 h, followed by treatment with 100 ng/ml LPS for another 30 min. (A) Cytoplasmic proteins were extracted and analyzed by Western Blot using antibodies specific for phospho-p38, phospho-JNK, phospho-ERK 1/2 and actin. (B) Nuclear proteins were extracted and analyzed by Western Blot against NF-kB p65 and lamin B antibodies. 10^5 cells/ml BV-2 cells were first pretreated with senkyunolide A for 1 h. After induction by 100 ng/ml LPS for 30 min, the culture medium was discarded. Cytoplasmic proteins and nuclear proteins were extracted separately by buffer A and buffer C as described in our previous report^28. The cell lysates were separated by 10% SDS-polyacrylamide gel electrophoresis and transferred to a nitrocellulose membrane (Schleicher & Schuell, Germany). The cell lysates were incubated with specific antibodies (phospho-MAP kinases, Actin, NF-kB p65 and Lamin B) overnight. After three washes, the membranes were incubated with the corresponding secondary antibodies. The bands were detected using the Enhanced Chemiluminescence System (GE Healthcare, Piscataway, N.J., USA) according to the manufacturer's instructions. The NF-kB pathway plays a key role in the transcriptional regulation of inflammatory mediators. […]

Neuro-2a cells [3] = assay: Conditioned culture medium transfer model (LPS-treated BV-2 supernatant on Neuro-2a), MTT assay; type: cell-based, murine; settings: supernatant of BV-2 cells treated with 100 ng/ml LPS and 50 μg/ml compound 18 h, on Neuro-2a 48 h; LPS only more than 40%
Method: BV-2 cells (3×10^5 cells/ml) were first treated with 100 ng/ml LPS for 18 h, in the presence of either 0.05% DMSO or 50 μg/ml senkyunolide A or Z-ligustilide. After centrifugation, the supernatants from BV-2 cells were transferred to Neuro-2a cells ([…]) for 48 h. Viability of Neuro-2a cells was measured using MTT assays. Results are shown as mean SD from three independent experiments. *p<0.05 compared with DMSO+LPS.
BV-2 cells were seeded at 3×10^5 cells/ml in 12-well culture plates (1 ml in each well). They were co-treated with or without 100 ng/ml LPS, in the presence of 0.05% DMSO, 50 μg/ml senkyunolide A, or 50 μg/ml Z-ligustilide, for 18 h. The supernatants were then collected and centrifuged at 13,200 rpm for 3 min. The resulting supernatants were then transferred to Neuro-2a cells (1×10^5 cells/ml in 24-well culture plates), which were incubated for another 48 h. Cell viability of Neuro-2a cells was measured by MTT assay.
Briefly, to investigate the physiological significance of Sen A and Z-Lig, a conditioned culture medium transfer model, commonly used for studying neuronal cell death induced by microglial activation, was adopted. After BV-2 cells were challenged with LPS, the supernatants were collected and centrifuged. The conditioned culture media were then transferred to Neuro-2a cell cultures.

Neuro-2a cells [4] = assay: Neuro-2a cells treated with compound alone in the culture media; type: cell-based, murine; settings: compound alone in the culture media (data not shown)
Source text: Specifically, a significant reduction in cell death, to less than 15% and 25%, respectively, was observed.

CCCC[C@H]1OC(=O)C2=C1CCC=C2 [senkyunolide A]
reduction in nitrite production ([1]; 10 μg/ml): approximately 4 fold | reduction in nitrite production ([1]; 25 μg/ml): ~20 fold | effect on nitrite production ([1]; 50 μg/ml): almost completely inhibits nitrite production | effect on endotoxin-induced TNF-α production [2]: suppress endotoxin-induced TNF-α production in a dose-dependent manner | effect on translocation of NF-kB p65 into the nucleus (NF-kB p65): did not exert an inhibitory effect | cell death of Neuro-2a cells (Neuro-2a cells [3]): less than 15% | cell death with compound alone (Neuro-2a cells [4]): did not show cell death

From patent US9655877B2, “Therapeutic methods for treating inflammation and immune system disorders” (priority 2009, dated 2017)
